Patent publication US20230113775A1, “ANHYDROUS COMPOSITIONS OF EGFR INHIBITORS AND METHODS OF USE” (priority 2021, published 2023)
Entries after “also recorded” stand apart in the source; their conditions may differ.

Assays:
[1] = test system: Normal keratinocyte cells; test: Effect of erlotinib on 2D non-diseased keratinocytes (proliferation, Loricrin expression); assay type: cell-based
Protocol: Normal keratinocyte cells were cultured and treated with vehicle or erlotinib at 100, 500 and 1000 nM. The proliferation rate of the cells was determined.

[2] = test system: Non-diseased 3D human skin equivalent (HSE); test: Effect of erlotinib on non-diseased 3D human skin equivalent; assay type: cell-based; settings: 100 nM erlotinib every 72 hours until harvest at day 10
Protocol: Human skin equivalents were prepared by methods known in the art. Examples of such methods are disclosed in Mieremet et al. Int. J. Mol. Sci. (2021) 22(11):5790. Non-diseased cells were plated for 3D human skin equivalent (HSE) and treated with 100 nM erlotinib from the time of lifting to the air-liquid interface every 72 hours until harvest at day 10. The samples were subjected to protein, mRNA, immunofluorescence and morphological analysis.

EI derived keratinocyte = test: Effect of erlotinib on 2D cultured keratinocytes derived from epidermolytic ichthyosis (colony density); assay type: cell-based, human; settings: 100 nM erlotinib; microscope and fold change
Protocol: Tissue from non-diseased donors and EI patients were cultured and treated with 100 nM erlotinib.

[3] = test system: Non-diseased 3D human skin equivalent (HSE); test: Gene expression analysis, non-diseased 3D HSE; assay type: cell-based
Protocol: (§1) Non-diseased cells and cells from an EI patient were plated for 3D human skin equivalent (HSE)and treated with the erlotinib at 10 nM or 100 nM from the time of lifting to the air-liquid interface every 72 hours until harvest at day 10. The samples were subjected to gene expression analysis. […] Markers of terminal differentiation such as fillaggrin (FLG) and loricrin (LOR) and markers of cell adhesion such as desmoglein 1 (DSG 1) were also modified.
Gene expression results for non-diseased tissue following treatment with erlotinib: […]

[4] = test system: EI patient 3D human skin equivalent (HSE); test: Gene expression analysis, EI patient 3D HSE; assay type: cell-based; settings: for CDN4 gene expression / CLDN1 gene expression / DSC1 gene expression / DSG1 gene expression / FLG gene expression / IVL gene expression / KRT10 gene expression / KRT16 gene expression / LOR gene expression / OCLN gene expression / TJP1 gene expression: Control 1.00
Protocol: as §1
Gene expression results for EI patient tissue following treatment with erlotinib: […]

[5] = Erlo 10 nM, NHEK83.19 non-diseased 3D HSE, Control 1.00
[6] = Erlo 10 nM, NUTC394.14 non-diseased 3D HSE, Control 1.00
[7] = Erlo 10 nM, NUTC439.14 non-diseased 3D HSE, Control 1.0
[8] = Erlo 100 nM, NHEK83.19 non-diseased 3D HSE, Control 1.00
[9] = Erlo 100 nM, NUTC394.14 non-diseased 3D HSE, Control 1.00
[10] = Erlo 100 nM, NUTC439.14 non-diseased 3D HSE, Control 1.0
[11] = Erlo 10 nM, CMH98.11 EI patient 3D HSE
[12] = Erlo 10 nM, CMH101.11 EI patient 3D HSE
[13] = Erlo 10 nM, CMH102.11 EI patient 3D HSE
[14] = Erlo 100 nM, CMH98.11 EI patient 3D HSE
[15] = Erlo 100 nM, CMH101.11 EI patient 3D HSE
[16] = Erlo 100 nM, CMH102.11 EI patient 3D HSE

C#Cc1cccc(Nc2ncnc3cc(OCCOC)c(OCCOC)cc23)c1 [erlotinib]
keratinocyte differentiation ([1]; following exposure to erlotinib): keratinocyte differentiation is increased
Loricrin expression ([1]; high dose erlotinib): increased Loricrin expression
keratinocyte proliferation ([1]; medium and high doses of erlotinib (tested 100, 500 and 1000 nM) vs vehicle): decreased keratinocyte proliferation
desmosomal organization [2]: desmosomal organization is enhanced
terminal differentiation [2]: enhances terminal differentiation
EI derived keratinocyte colony density (EI derived keratinocyte): marked reduction in colony density; also recorded: markedly reduced
CDN4 gene expression [3, 5]: 2.92
CLDN1 gene expression [3, 5]: 1.30
DSC1 gene expression [3, 5]: 0.60
DSG1 gene expression [3, 5]: 0.73
FLG gene expression [3, 5]: 0.51
IVL gene expression [3, 5]: 2.15
KRT10 gene expression [3, 5]: 0.28
KRT16 gene expression [3, 5]: 1.70
LOR gene expression [3, 5]: 0.03
OCLN gene expression [3, 5]: 1.76
TJP1 gene expression [3, 5]: 1.65
CDN4 gene expression [3, 6]: 2.87
CLDN1 gene expression [3, 6]: 1.28
DSC1 gene expression [3, 6]: 0.59
DSG1 gene expression [3, 6]: 0.72
FLG gene expression [3, 6]: 0.50
IVL gene expression [3, 6]: 2.11
KRT10 gene expression [3, 6]: 0.27
KRT16 gene expression [3, 6]: 1.67
LOR gene expression [3, 6]: 0.03
OCLN gene expression [3, 6]: 1.73
TJP1 gene expression [3, 6]: 1.62
CDN4 gene expression [3, 7]: 0.7
CLDN1 gene expression [3, 7]: 1.9
DSC1 gene expression [3, 7]: 1.9
DSG1 gene expression [3, 7]: 2.1
FLG gene expression [3, 7]: 1.0
IVL gene expression [3, 7]: 0.9
KRT10 gene expression [3, 7]: 2.1
KRT16 gene expression [3, 7]: 0.9
LOR gene expression [3, 7]: 1.4
OCLN gene expression [3, 7]: 0.7
TJP1 gene expression [3, 7]: 0.7
CDN4 gene expression [3, 8]: 1.65
CLDN1 gene expression [3, 8]: 1.24
DSC1 gene expression [3, 8]: 2.69
DSG1 gene expression [3, 8]: 2.77
FLG gene expression [3, 8]: 2.37
IVL gene expression [3, 8]: 1.21
KRT10 gene expression [3, 8]: 11.50
KRT16 gene expression [3, 8]: 1.00
LOR gene expression [3, 8]: 8.19
OCLN gene expression [3, 8]: 1.36
TJP1 gene expression [3, 8]: 1.58
CDN4 gene expression [3, 9]: 1.54
CLDN1 gene expression [3, 9]: 1.16
DSC1 gene expression [3, 9]: 2.52
DSG1 gene expression [3, 9]: 2.59
FLG gene expression [3, 9]: 2.21
IVL gene expression [3, 9]: 1.14
KRT10 gene expression [3, 9]: 10.75
KRT16 gene expression [3, 9]: 0.89
LOR gene expression [3, 9]: 7.66
OCLN gene expression [3, 9]: 1.27
TJP1 gene expression [3, 9]: 1.48
CDN4 gene expression [3, 10]: 1.4
CLDN1 gene expression [3, 10]: 29.4
DSC1 gene expression [3, 10]: 29.4
DSG1 gene expression [3, 10]: 9.3
FLG gene expression [3, 10]: 25.9
IVL gene expression [3, 10]: 1.5
KRT10 gene expression [3, 10]: 17.2
KRT16 gene expression [3, 10]: 1.6
OCLN gene expression [3, 10]: 1.6
TJP1 gene expression [3, 10]: 1.3
keratin 10 (KRT10) expression ([3]; normal human keratinocytes in 3D culture, erlotinib 10 nM or 100 nM): marked increase
keratin 10 (KRT10) expression ([4]; EI derived human keratinocytes in 3D culture, erlotinib 10 nM or 100 nM): marked increase
CDN4 gene expression [4, 11]: 0.7
CLDN1 gene expression [4, 11]: 0.9
DSC1 gene expression [4, 11]: 0.8
DSG1 gene expression [4, 11]: 1.8
FLG gene expression [4, 11]: 1.2
IVL gene expression [4, 11]: 1.3
KRT10 gene expression [4, 11]: 0.9
KRT16 gene expression [4, 11]: 1.3
LOR gene expression [4, 11]: 1.2
OCLN gene expression [4, 11]: 0.7
TJP1 gene expression [4, 11]: 0.7
CDN4 gene expression [4, 12]: 0.96
CLDN1 gene expression [4, 12]: 0.71
DSC1 gene expression [4, 12]: 0.65
DSG1 gene expression [4, 12]: 1.11
FLG gene expression [4, 12]: 1.08
IVL gene expression [4, 12]: 1.04
KRT10 gene expression [4, 12]: 1.00
KRT16 gene expression [4, 12]: 1.63
LOR gene expression [4, 12]: 1.10
OCLN gene expression [4, 12]: 0.81
TJP1 gene expression [4, 12]: 0.55
CDN4 gene expression [4, 13]: 1.86
CLDN1 gene expression [4, 13]: 0.79
DSC1 gene expression [4, 13]: 0.79
DSG1 gene expression [4, 13]: 4.72
FLG gene expression [4, 13]: 1.22
IVL gene expression [4, 13]: 1.58
KRT10 gene expression [4, 13]: 2.27
KRT16 gene expression [4, 13]: 1.31
LOR gene expression [4, 13]: 0.90
OCLN gene expression [4, 13]: 1.15
TJP1 gene expression [4, 13]: 1.13
CDN4 gene expression [4, 14]: 1.8
CLDN1 gene expression [4, 14]: 1.6
DSC1 gene expression [4, 14]: 1.7
DSG1 gene expression [4, 14]: 1.9
FLG gene expression [4, 14]: 1.1
IVL gene expression [4, 14]: 2.3
KRT10 gene expression [4, 14]: 1.6
KRT16 gene expression [4, 14]: 0.8
LOR gene expression [4, 14]: 0.6
OCLN gene expression [4, 14]: 1.2
TJP1 gene expression [4, 14]: 1.2
CDN4 gene expression [4, 15]: 0.72
CLDN1 gene expression [4, 15]: 0.37
DSC1 gene expression [4, 15]: 6.09
DSG1 gene expression [4, 15]: 2.57
FLG gene expression [4, 15]: 0.72
IVL gene expression [4, 15]: 0.83
KRT10 gene expression [4, 15]: 5.78
KRT16 gene expression [4, 15]: 0.85
LOR gene expression [4, 15]: 0.95
OCLN gene expression [4, 15]: 0.57
TJP1 gene expression [4, 15]: 0.57
CDN4 gene expression [4, 16]: 3.17
CLDN1 gene expression [4, 16]: 2.20
DSC1 gene expression [4, 16]: 2.20
DSG1 gene expression [4, 16]: 6.61
FLG gene expression [4, 16]: 2.06
IVL gene expression [4, 16]: 1.76
KRT10 gene expression [4, 16]: 6.44
KRT16 gene expression [4, 16]: 1.14
LOR gene expression [4, 16]: 0.79
OCLN gene expression [4, 16]: 1.92
TJP1 gene expression [4, 16]: 1.44
